Experiments:
HCT-116 = assay: Cytotoxicity assay (SRB), HCT-116; format: cell-based; settings: Homo sapiens, HCT-116, 72 h, HCT116 cells, SRB, three days; read-out: In Vitro Cellular Activity IC50 HCT116
In short: (§1)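 Plate cells, let them attach overnight, add compound dilutions in RPMI 1640/5% FBS, and incubate 3 days (BT474 6 days). Then fix with TCA, stain with SRB, dissolve the dye in Tris and read at 540 nm.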

MCF-7 = assay: Cytotoxicity assay (SRB), MCF-7; format: cell-based; settings: Homo sapiens, MCF7, 72 h, MCF-7 cells, SRB, three days; read-out: In Vitro Cellular Activity IC50 MCF-7
In short: as §1

LoVo = assay: Cytotoxicity assay (SRB), LoVo; format: cell-based; settings: Homo sapiens, LoVo, 72 h, LoVo cells, SRB, three days; read-out: In Vitro Cellular Activity IC50 LOVO
In short: as §1

cyclin E/CDK2 enzyme = target: T1, cyclin E/CDK2 enzyme (Homo sapiens, UniProt P24941); assay: CDK2 ELISA kinase assay (phospho-Rb ser 795 detection); format: biochemical; settings: In Vitro Enzyme Assays, read-out: CDK2 IC50
T1 construct: made in house; host or cells: Sf9 insect cells, recombinant baculovirus
In short: (§2)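 Screening was done at 10 ug/ml compound. Each partially purified cyclin/CDK complex, produced in baculovirus-infected Sf9 cells, phosphorylated a coated GST-Rb C-terminal fragment with 200 μM ATP, and Ser795 phosphorylation was quantified by HRP-ELISA at 450 nm.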

cyclin D1/cdk 4 enzyme = target: T2, cyclin D1/cdk 4 enzyme (Homo sapiens, UniProt P11802); assay: CDK4 ELISA kinase assay (phospho-Rb ser 795 detection); format: biochemical; settings: In Vitro Enzyme Assays, 200 μM ATP, read-out: CDK4 IC50
T2 construct: made in house; host or cells: Sf9 insect cells, recombinant baculovirus
T2 sequence (P11802 whole entry, species assumed): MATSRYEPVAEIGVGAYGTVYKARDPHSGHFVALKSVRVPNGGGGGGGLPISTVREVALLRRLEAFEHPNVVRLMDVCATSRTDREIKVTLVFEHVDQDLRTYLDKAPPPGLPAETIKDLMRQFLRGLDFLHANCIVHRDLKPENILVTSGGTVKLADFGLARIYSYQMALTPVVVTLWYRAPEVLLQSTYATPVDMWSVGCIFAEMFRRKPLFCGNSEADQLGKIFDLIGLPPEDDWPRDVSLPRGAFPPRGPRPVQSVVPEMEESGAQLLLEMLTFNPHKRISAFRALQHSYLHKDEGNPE
T2 sequence (P24385 whole entry partner, species assumed): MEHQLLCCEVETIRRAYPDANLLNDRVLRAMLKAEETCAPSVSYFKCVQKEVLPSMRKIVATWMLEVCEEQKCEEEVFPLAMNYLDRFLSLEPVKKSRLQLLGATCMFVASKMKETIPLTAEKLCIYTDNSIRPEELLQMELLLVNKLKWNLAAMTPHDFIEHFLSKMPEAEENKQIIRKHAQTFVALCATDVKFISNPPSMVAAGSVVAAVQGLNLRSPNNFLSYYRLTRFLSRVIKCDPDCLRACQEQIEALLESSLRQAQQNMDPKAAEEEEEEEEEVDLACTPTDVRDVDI
In short: as §2

cyclin B/CDK1 enzyme = target: T3, cyclin B/CDK1 enzyme (Homo sapiens, UniProt P06493); assay: CDK1 ELISA kinase assay (phospho-Rb ser 795 detection); format: biochemical; settings: In Vitro Enzyme Assays, read-out: CDK1 IC50
T3 construct: purchased New England BioLabs; host or cells: Sf9 insect cells, recombinant baculovirus
T3 sequence (P06493 whole entry): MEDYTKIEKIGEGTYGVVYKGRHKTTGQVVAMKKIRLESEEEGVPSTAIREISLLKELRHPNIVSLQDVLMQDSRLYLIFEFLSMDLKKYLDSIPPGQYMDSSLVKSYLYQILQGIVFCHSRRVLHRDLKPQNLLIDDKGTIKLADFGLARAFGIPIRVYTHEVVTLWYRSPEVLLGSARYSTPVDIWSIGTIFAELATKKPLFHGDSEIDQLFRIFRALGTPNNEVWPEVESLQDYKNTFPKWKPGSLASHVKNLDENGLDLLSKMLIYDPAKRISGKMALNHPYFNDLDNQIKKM
T3 sequence (P14635 whole entry partner): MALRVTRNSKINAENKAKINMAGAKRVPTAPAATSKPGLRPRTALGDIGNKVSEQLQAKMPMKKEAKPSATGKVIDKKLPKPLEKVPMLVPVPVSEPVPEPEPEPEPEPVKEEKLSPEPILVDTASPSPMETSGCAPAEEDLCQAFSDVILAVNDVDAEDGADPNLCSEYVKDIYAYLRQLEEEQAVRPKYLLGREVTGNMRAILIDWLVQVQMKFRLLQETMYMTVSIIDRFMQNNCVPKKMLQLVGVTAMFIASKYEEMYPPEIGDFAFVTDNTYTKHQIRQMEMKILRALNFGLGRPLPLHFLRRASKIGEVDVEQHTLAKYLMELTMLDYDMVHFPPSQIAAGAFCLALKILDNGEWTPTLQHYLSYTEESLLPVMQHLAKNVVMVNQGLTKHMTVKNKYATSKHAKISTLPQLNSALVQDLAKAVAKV
In short: as §2

BT474 = assay: Cytotoxicity assay (SRB), BT474; format: cell-based; settings: Homo sapiens, BT-474, 144 h, BT474 cells, SRB, 6 days; read-out: In Vitro Cellular Activity IC50 BT474
In short: as §1

| SMILES | IC50 (cyclin E/CDK2 enzyme) [µM] | IC50 (cyclin D1/cdk 4 enzyme) [µM] | IC50 (cyclin B/CDK1 enzyme) [µM] | IC50 (HCT-116) [µM] | IC50 (MCF-7) [µM] | IC50 (LoVo) [µM] | IC50 (BT474) [µM] |
| --- | --- | --- | --- | --- | --- | --- | --- |
| CC(=O)Nc1cc(CN/C=C2\C(=O)NC(=O)c3ccc(Br)cc32)cc(O)c1O [Example 213] | > 50 | 0.19 | > 50 | > 50 | > 50 | 48 | > 50 |
| CN(C)CCSc1ccc(N/C=C2\C(=O)NC(=O)c3ccc(Br)cc32)cc1 [Example 229, (4Z)-6-Bromo-4-{[(4-{[2-(dimethylamino)ethyl]thio}phenyl)amino]methylene}isoquinoline-1,3(2H,4H)-dione] | > 50 | 0.24 | > 50 | 3.6 | 4.6 | 8.5 | 4 |
| CN(C)CCN(C)c1ccc(N/C=C2\C(=O)NC(=O)c3ccc(Br)cc32)cc1 [Example 231, (4Z)-6-Bromo-4-[({4-[[2-(dimethylamino)ethyl](methyl)amino]phenyl}amino)methylene]isoquinoline-1,3(2H,4H)-dione] | > 50 | 3.6 | 29.6 | 4.1 | 2.4 | 10 | 8.3 |
| CN1CCCN(c2ccc(N/C=C3\C(=O)NC(=O)c4ccc(Br)cc43)cc2)CC1 [Example 232, (4Z)-6-Bromo-4-({[4-(4-methyl-1,4-diazepan-1-yl)phenyl]amino}methylene)isoquinoline-1,3(2H,4H)-dione] | > 50 | 2.7 | > 50 | 1.4 | 2.1 | 3.7 | 3.3 |
| CN1CCN(c2ccc(N/C=C3\C(=O)NC(=O)c4ccc(-c5ccoc5)cc43)cc2)CC1 [Example 236, (4Z)-6-(3-Furyl)-4-({[4-(4-methylpiperazin-1-yl)phenyl]amino}methylene)isoquinoline-1,3(2H,4H)-dione] | > 50 | 0.22 | > 50 | 1.2 | 1.1 | 2.2 | 1 |
| CN(CCO)c1ccc(N/C=C2\C(=O)NC(=O)c3ccc(Br)cc32)cc1 [Example 244, (4Z)-6-Bromo-4-[({4-[(2-hydroxyethyl)(methyl)amino]phenyl}amino)methylene]isoquinoline-1,3(2H,4H)-dione] | > 50 | 45.5 | > 50 | 4.9 | 19 | 15 | 9.4 |
| CN1CCC(N(C)c2ccc(N/C=C3\C(=O)NC(=O)c4ccc(Br)cc43)cc2)C1 (stereo not drawn) [Example 245, (4Z)-6-Bromo-4-[({4-[methyl(1-methylpyrrolidin-3-yl)amino]phenyl}amino)methylene]isoquinoline-1,3(2H,4H)-dione] | > 50 | 2 | > 50 | 3.4 | 3 | 6.6 | 8.4 |
| CN(CCN1CCCC1)c1ccc(N/C=C2\C(=O)NC(=O)c3ccc(Br)cc32)cc1 [Example 255, (4Z)-6-Bromo-4-[({4-[methyl(2-pyrrolidin-1-ylethyl)amino]phenyl}amino)methylene]isoquinoline-1,3(2H,4H)-dione] | > 50 | 2.5 | > 50 | 3.1 | 3.6 | 3.8 | 7.9 |
| CN(CCN1CCCCC1)c1ccc(N/C=C2\C(=O)NC(=O)c3ccc(Br)cc32)cc1 [Example 256, (4Z)-6-Bromo-4-[({4-[methyl(2-piperidin-1-ylethyl)amino]phenyl}amino)methylene]isoquinoline-1,3(2H,4H)-dione] | > 50 | 4.3 | > 50 | 3.1 | 5.3 | 3.6 | 7.5 |

Now from value to compound, other results behind:

| IC50 (cyclin E/CDK2 enzyme) [µM] | IC50 (cyclin D1/cdk 4 enzyme) [µM] | IC50 (cyclin B/CDK1 enzyme) [µM] | SMILES | IC50 (HCT-116) [µM] | IC50 (MCF-7) [µM] | IC50 (LoVo) [µM] | IC50 (BT474) [µM] |
| --- | --- | --- | --- | --- | --- | --- | --- |
| > 50 | 0.16 | 41.9 | C[C@@H]1CN(c2ccc(N/C=C3\C(=O)NC(=O)c4ccc(-c5ccsc5)cc43)cc2)C[C@H](C)N1 [Example 206, (4Z)-4-({[4-(3,5-Dimethylpiperazin-1-yl)phenyl]amino}methylene)-6-thien-3-ylisoquinoline-1,3(2H,4H)-dione] | 1.6 | 3.7 | 7.4 | 2.9 |
| > 50 | 0.2 | > 50 | C[C@@H]1CN(c2ccc(N/C=C3\C(=O)NC(=O)c4ccc(-c5ccoc5)cc43)cc2)C[C@H](C)N1 [Example 207, (4Z)-4-({[4-(3,5-Dimethylpiperazin-1-yl)phenyl]amino}methylene)-6-(3-furyl)iso-quinoline-1,3(2H,4H)-dione] | 1.1 | 0.69 | 2.2 | 0.79 |
| 30.3 | 0.009 | > 50 | COc1ccc(CN/C=C2\C(=O)NC(=O)c3ccc(-c4ccc(F)cc4)cc32)cc1O [Example 208, (4Z)-6-(4-Fluorophenyl)-4-{[(3-hydroxy-4-methoxybenzyl)amino]methylene}iso-quinoline-1,3(2H,4H)-dione] | 5.7 | 3.4 | 15 | 8.2 |
| 9.2 | 0.01 | > 50 | COc1ccc(CN/C=C2\C(=O)NC(=O)c3ccc(-c4cccc(F)c4)cc32)cc1O [Example 209, (4Z)-6-(3-Fluorophenyl)-4-{[(3-hydroxy-4-methoxybenzyl)amino]methylene}iso-quinoline-1,3(2H,4H)-dione] | 7 | 5.4 | 15 | 9.4 |
| 2.1 | 0.008 | 18.9 | COc1c(O)cc(CN/C=C2\C(=O)NC(=O)c3ccc(Br)cc32)cc1O [Example 210, (4Z)-6-Bromo-4-{[(3,5-dihydroxy-4-methoxybenzyl)amino]methylene}isoquinoline-1,3(2H,4H)-dione] | 10 | 6.6 | 10 | 13 |
| 20.2 | 2.5 | 38 | O=C1NC(=O)c2ccc(Br)cc2/C1=C/NCCCCO [Example 211, (4Z)-6-Bromo-4-{[(4-hydroxybutyl)amino]methylene}isoquinoline-1,3(2H,4H)-dione] | 27 | 24 | 48 | 29 |
| > 50 | 0.77 | > 50 | CCCOc1cc(CN/C=C2\C(=O)NC(=O)c3ccc(Br)cc32)cc(O)c1OCCC [Example 212, (4Z)-6-Bromo-4-{[(3-hydroxy-4,5-dipropoxybenzyl)amino]methylene}isoquinoline-1,3(2H,4H)-dione] | 25 | 37 | 30 | 47 |
| 6.3 | 17.6 | > 50 | O=C1NC(=O)c2ccc(Br)cc2/C1=C/Nc1ccc2c(c1)CCN2 [Example 214, (4Z)-6-Bromo-4-[(2,3-dihydro-1H-indol-5-ylamino)methylene]isoquinoline-1,3(2H,4H)-dione] | 39 | 14 | > 50 | 6.8 |
| 6.1 | 31.7 | > 50 | COc1cc(CN/C=C2\C(=O)NC(=O)c3ccc(Br)cc32)ccn1 [Example 222, (4Z)-6-Bromo-4-({[(2-methoxypyridin-4-yl)methyl]amino}methylene)isoquinoline-1,3(2H,4H)-dione] | 14 | 13 | 19 | 13 |
| 4 | 0.17 | 45.5 | CC1(C)Oc2cc(CN/C=C3\C(=O)NC(=O)c4ccc(Br)cc43)cc(O)c2O1 [Example 224, (4Z)-6-Bromo-4-({[(7-hydroxy-2,2-dimethyl-1,3-benzodioxol-5-yl)methyl]amino}methylene)isoquinoline-1,3(2H,4H)-dione] | 6.4 | 7.4 | 7.9 | 9.6 |
| 2.7 | 0.56 | > 50 | O=C1NC(=O)c2ccc(Br)cc2/C1=C/NCc1cc[nH]c(=O)c1 [Example 225, (4Z)-6-Bromo-4-({[(2-oxo-1,2-dihydropyridin-4-yl)methyl]amino}methylene)isoquinoline-1,3(2H,4H)-dione] | > 50 | > 50 | > 50 | 19.5 |
| 1.9 | 1.2 | 12.3 | CN(C)CCS(=O)(=O)c1ccc(N/C=C2\C(=O)NC(=O)c3ccc(Br)cc32)cc1 [Example 243] | 5 | 5 | 12 | 13 |

From patent publication US7713994B2 (Wyeth LLC, priority 2005, dated 2010)
